What was measured:
[1] = tested on: p16^INK4A protein in NHEK; assay: p16^INK4A protein level in NHEK by Western blot; assay type: cell-based, human; settings: 1 nM, PDL 13.6-17.1
Method: (§1) To investigate the expression levels of pRb and p16^INK4A proteins in NHOK and NHEK that are exposed to all trans retinoic acid, Western blot analysis (Min B. -M. et al., Int. J. Oncol., 1995, 7, 249-256) was performed using anti-mouse Rb (IFB) monoclonal antibody and anti-human p16 (C-20) polyclonal antibody (Santa Cruz Biotechnology). After probing with each of the respective antibodies, the membrane was stained with 1X Ponceau S stain for 10 minutes to reveal the total protein loading per lane.

[2] = tested on: NHOK; assay: Mitotic capacity of NHOK through continuous subculture (PDL, SA-β-gal); assay type: cell-based, human; settings: 1 nM
Method: (§2) At the end of each stage, the population doubling level of NHOK was calculated by the following equation 1: […]
(§3) Wherein, N: PDL, Cf: total cell numbers obtained from the end of a passage, Ci: total cell numbers of attached cells at seeding.
(§4) NOOK (PDL 15) showing rapid proliferation was cultured with 2×10^5 cell per 60-mm petri dish. In addition, NHEK (PDL 11) was cultured in the same manner as in the NHOK. The cells were divided into two groups, which were cultured in KGM containing vehicle (0.001% DMSO) or 1 nM all-trans retinoic acid until the cells reached 70% confluency, and then subcultured until they reached the postmitotic stage of cell proliferation. All-trans retinoic acid was used by dissolving it in DMSO and then diluting with KGM so as to have a final DMSO concentration of 0.001%. The PDL accumulated at the last stage of each subculture and the senescent cell numbers in the cultured NHOK and NHEK, that is to say, the percentage (%) of positive cells by SA-β-gal staining were determined. The cell pellet obtained after washing with 1X PBS was frozen at −70° C. for TRAP and Western blot analysis (see, FIGS. 3a, 3b, 3c, 4a, 4b, and 4c).

[3] = tested on: normal human epidermal keratinocytes (NHEK); assay: NHEK proliferation rate with all-trans retinoic acid (viable cell count by trypan blue exclusion); assay type: cell-based
Method: NHEK was prepared in the same manner as in the above example 1, except that tissue samples were taken from human foreskin tissue specimens of two healthy volunteers (ages ranged from 1 to 3 years).
To determine the effect of all-trans retinoic acid on cell proliferation, rapidly proliferating NHEK (PDL 11) were plated at 2×10^4 cell per well in a 24-well plate and cultured until their cell density reached 40% (24 hours after the plating). The cultured cells were exposed to all-trans retinoic acid containing various concentrations, 1 nM, 10 nM, 100 nM, 500 nM, 1 μM, and 5 μM and harvested after 2 or 4 days of incubation to count the number of viable cells by trypan blue exclusion. The average number and standard deviation was calculated as above same procedure (FIG. 1b).

[4] = tested on: pRb protein in NHOK; assay: pRb protein level in NHOK by Western blot; assay type: cell-based, human; settings: 1 nM
Method: as §1

[5] = tested on: NHEK; assay: Mitotic capacity of NHEK through continuous subculture (PDL, SA-β-gal); assay type: cell-based, human; settings: 1 nM
Method: as §2, §3, §4

[6] = tested on: p16^INK4A protein in NHOK; assay: p16^INK4A protein level in NHOK by Western blot; assay type: cell-based, human; settings: 1 nM, at any given PDL number
Method: as §1

[7] = tested on: normal human oral keratinocytes (NHOK); assay: NHOK proliferation rate with all-trans retinoic acid (viable cell count by trypan blue exclusion); assay type: cell-based
Method: NHOK were prepared from human gingival tissue specimens (Min B. -M. et al., Int. J. Oncol., […], 7, 249-256). The tissue samples obtained from four healthy volunteers (ages ranged from 18 to 30 years) were thoroughly washed three times with calcium and magnesium-free Hanks' balanced salt solution (CMF-HBSS; GibcoBRL). In order to separate the epithelial tissue from the underlying mucosa, the tissue scruples were incubated in CMF-HBSS containing collagenase type II (1.0 mg/ml; Sigma Chemical Co.) and dispase grade II (2.4 mg/ml; Boeringer-Mannheim) for 90 min at 37° C. in 95% air and 5% carbon dioxide Primary NHOK were prepared from separated oral epithelial tissue (Min B. -M. et al., Int. J. Oncol. 1995, 7, 249-256), and cultured in keratinocyte basal medium containing 0.15 mM calcium and supplementary growth factor bullet kit (KGM; Clonetics Corp.) as described above. […]
To determine the effect of all-trans retinoic acid on cell proliferation, rapidly proliferating NHOK (PDL 18) were plated at 2×10^4 cells per well in a 24-well culture plate. […] The average number and standard deviation were calculated as the means of four independent experiments (FIG. 1a).

[8] = tested on: senescent NHOK (PDL 22); assay: Senescence inhibition of senescent NHOK by SA-β-gal staining; assay type: cell-based, human; settings: 1 nM, 21 days
Excerpt: The senescent NHOK were positively stained by β-galactosidase (Dimri G. D. et al., Proc. Nat. Acad. Sci., 1995, 92, 9363-9367). Using such properties, the inhibition against senescence of all-trans retinoic acid-treated NHOK was examined. […]
To ensure a representative count, each cell culture was divided into four equal parts and minimum two areas per each part were photographed with Olympus IMT-2 phase-contrast microscope, thus counting the cells. As the result, minimum 500 or more cells per each part were counted.
After the senescent NHOK (PDL 22) were exposed to 1, 10, or 100 nM retinoic acid for 21 days the percentage (%) of senescent cells was obtained from SA-β-gal positive cell (%) versus total cells. The average percentage (%) and standard deviation were calculated from three independent experiments.

[9] = tested on: telomerase activity of NHEK; assay: Telomerase activity of NHEK by TRAP assay; assay type: cell-based, human; settings: 1 nM
Method: (§5) To investigate telomerase activity of NHOK and NHEK exposed to all-trans retinoic acid, the telomerase activity was determined using a TPAP-eze telomerase detection kit (Oncor Inc.), which, is based on the TRAP assay.
(§6) More specifically, the frozen cell pellet in the above example 4 was dissolved in 200 μl of 1X CHAPS buffer (composition: 10 mM Tris-HCl pH 7.5, 1 mM MgCl2; 1 mM EDTA 0.5% 3[(3-cholamidopropyl)-dimethylammonium]-1-propanesulfonate, 10% glycerol, 5 mM β-mercaptoethanol and 0.1 mM benzamidine), incubated on ice for 30 minutes; and then centrifuged at 12,000 rpm for 30 minutes at 4° C. The separated supernatant was aliquoted and frozen on dry ice for TRAP assay.
(§7) For TRAP analysis, 2 μl of cell lysate containing 1.0 μg of cellular proteins were added to 48 μl of solution including 1X TRAP reaction buffer [composition: 20 mM Tris-HCl (pH 8.3), 1.5 mM MgCl2, 63 mM KCl 0.005% Tween 20, and 1 mM EGTA], 50 μM of each of four types of deoxynucleotide triphosphates, 0.05 μg of TS primer end-labeled with 20 μCi of [γ^32-P] ATP (3000 Ci/mmol; Amersham Corp.), 1 μl of primer mix, and Taq DNA polymerase (Perkin-Elmer) 0.4 unity. […] The PCR products were run in 12.5% nondenaturing polyacrylamide gel in 1X Tris-borate EDTA for 90 minutes at 60 W. After drying the gel, the radioactive signal was detected by autoradiography.

[10] = Acute oral toxicity test of rat; settings: Sprague-Dawley, in vivo, 1 g/kg/15 ml
Method: To investigate the acute oral Toxicity test: Sprague-Dawley rats aged 6 weeks are used. Two rats per group were orally administered with all-trans retinoic acid and the 0.5% methyl cellulose solutions at a dose of 1 g/kg/15 ml one time. After administration, clinical symptoms, occurrence of death and the change of weight were observed. In addition, the rats were killed after administration, dissected, and celiac intestine and thoracic were examined with the unaided eye.

[11] = tested on: telomerase activity of NHOK; assay: Telomerase activity of NHOK by TRAP assay; assay type: cell-based, human; settings: 1 nM
Method: as §5, §6, §7

CC1=C(/C=C/C(C)=C/C=C/C(C)=C/C(=O)O)C(C)(C)CCC1 [all-trans retinoic acid]
intracellular p16^INK4A protein level compared to the vehicle control [1]: much lower
upper end of the log phase of cell proliferation (PDL) ([2]; serial subculture from PDL 15, vehicle: until PDL 20): 26 PDL
PDL at which cells ceased to proliferate ([2]; serial subculture, vehicle: PDL 22): 28 PDL
cell proliferation of NHEK, best of the test concentrations ([3]; 1 nM, among test concentrations 1 nM to 5 μM): maximum cell proliferation
growth of NHEK ([3]; 1 μM or higher): restrained in their growth
cell proliferation of NHEK compared to the vehicle control ([3]; NHEK (PDL 11), 1 nM, 2 or 4 days of incubation): notably increased
pRb protein level compared to the vehicle control ([4]; according to the increase of PDL (high PDL)): higher levels
amount of pRb protein ([4]; early culture at PDL 18): extremely low
pRb protein level compared to the vehicle control of corresponding PDL ([4]; low PDL): much lower
upper end of the log phase of cell proliferation (PDL) ([5]; serial subculture from PDL 10.8, vehicle: until PDL 19.8): 24.3 PDL
PDL up to which cells proliferated (no further proliferation) ([5]; serial subculture, vehicle: PDL 20.5): 25.1 PDL
intracellular p16^INK4A protein level compared to the vehicle control [6]: significantly lower
cell proliferation of NHOK, best of the test concentrations ([7]; 1 nM, among test concentrations 1 nM to 10 μM): maximally enhanced
cell proliferation of NHOK compared to the vehicle control ([7]; NHOK (PDL 18), 1 or 10 nM, 2 or 4 days of incubation): noticeably increased
replicative senescence (SA-β-gal positive cells) compared to the vehicle control [8]: significantly inhibited
telomerase activity ([9]; PDL 24.3 and 25.1 (replicative senescence)): hardly or almost undetected
telomerase activity ([9]; according to the increase of PDL): maintained
LD50 [10]: > 2000 mg/kg
telomerase activity ([11]; PDL 27 and 28 (replicative senescence)): almost undetectable
telomerase activity ([11]; at high PDL numbers): maintained or slightly increased

Source: patent publication US6566399B2, “Inhibitor of replicative senescence of human keratinocytes containing retinoic acid as active ingredients” (priority 2000, dated 2003)
